Results reported in US10233426B2, “Method for inducing cardiac differentiation of pluripotent stem cell with low-molecular compounds” (KYOTO UNIVERSITY, priority 2014, dated 2019).

How the values were obtained:
[1] = system: cells from suspension or adhesion culture of IMR90-1 under PFCD condition; assay: Whole-cell patch clamp electrophysiology of PFCD cardiomyocytes; type: cell-based, human; details: IMR90-1 PFCD cardiomyocytes, day 30; FIG. 4k
Excerpt: Comparison was made between cells from suspension culture and cells from adhesion culture in terms of electrophysiology of cells by using a whole-cell patch clamp technique. For this purpose, IMR90-1 (from culture on MEF feeder) was suspension or adhesion cultured under PFDC condition. Cells were harvested on day 30 for the analysis. In action potential waveforms in the cells from suspension culture and the cells from adhesion culture, there was no significant difference between the cell populations in terms of RP (resting potential; around −60 mV) (FIGS. 4d and 4e) and APD90 (action potential duration; about 0.7 sec) (FIGS. 4d and 4g). […] ICa (Voltage-gated Ca channel current) was also higher in the cells from suspension culture than the cells from adhesion culture, but the difference was not significant (FIG. 4i). […] IKs (KCQN1 channel current) was higher in the cells from suspension culture than the cells from adhesion culture (FIG. 4j).

IMR90-1 = assay: Count of differentiated cardiomyocytes after culture under PFCD condition; type: cell-based, human; details: IMR90-1, PFCD suspension culture, day 14; FIG. 3d
Excerpt: The differentiated cardiomyocytes was counted in the cell population from suspension or adhesion culture under PFCD condition of the pluripotent stem cell lines. The counts of differentiated cells per 2×10^6 undifferentiated cells are shown in the graph of FIG. 2d. The differentiation was more induced by suspension culture than adhesion culture in most of the stem cell lines. The cell count, as well as the flow cytometry, was taken on day 14.
To determine the contribution of each of the six compounds (CHIR99021, PMA, KY03-I, XAV939, AG1478, and A419259) to PFCD under suspension culture condition, IMR90-1 (from culture on MEF feeder) was cultured in media to which different combinations of five of the compounds were added. Cells from the culture were analyzed by flow cytometry using a cTnT antibody for staining. A part of the cells from culture were not treated with the primary antibody to serve as a negative control. Thirty thousand cells from each sample were loaded to a flow cytometer FACSCantoII.
The differentiated cardiomyocytes was counted in a cultured cell population corresponding to that of FIG. 3c. […] The cell count, as well as the flow cytometry, was taken on day 14.

[2] = system: mesoderm-related genes (MSGN1, T, MIXL1 and NODAL); assay: Quantitative PCR for expression of mesoderm-related genes under PFCD condition; type: cell-based, human; details: IMR90-1; 2 μM CHIR99021 or 0.3 μM PMA alone, day 0 to day 2; mRNA on day 2; FIG. 3e
Procedure: A human iPS cell line (IMR90-1 cultured on MEF feeder) was cultured in PFCD culture media, to which 2 μM CHIR99021 or 0.3 μM PMA or the both (CHIR99021+PMA) were added for early phase of cardiac differentiation (day 0 to day 2). On day 2, mRNA was extracted the cultured cells and analyzed by quantitative PCR for the expression of mesoderm-related genes (MSGN1, T, MIXL1 and NODAL) (FIG. 3e). As a control, cells were cultured similarly, but with DMSO in place of the test compounds. The gene expression level in the control cells was assigned to one. […] In contrast, the expression of the genes was reduced when PMA was added to the culture. However, the reduction in gene expression by PMA was counteracted and reversed when CHIR99021 was added in combination with PMA (in accordance with the optimal PFCD condition).
A human iPS cell line (IMR90-1 from culture on MEF feeder) was cultured in PFCD media with one of 1 μM XAV939, 0.3 μM A419259, 10 μM AG1478 or 3 μM KY03-I, or all of them (XAV939+A419259+AG1478+KY03-I) in late phase of cardiac differentiation (day 3 to day 4). On day 4, mRNA was extracted from the cultured cells and analyzed by quantitative PCR for the expression of mesoderm-related genes (MSGN1, T, MIXL1 and NODAL) (FIG. 3f).

[3] = system: monkey ES cell line transfected with an α-MHC promoter-driven GFP gene; details: culture with PMA (all six compounds); without PMA (other five compounds) only weak fluorescence; FIG. 3a
Excerpt: A monkey ES cell line transfected with an α-MHC promoter-driven GFP gene was suspension cultured under PFCD condition in culture media with PMA (with all the six compounds added) or without PMA (with the five compounds other than PMA added) (FIG. 2a). The cells from the culture with PMA are shown in the left-hand micrographs, and the cells from the culture without PMA are shown in the right-hand micrographs.

[4] = system: monkey ES cell line transfected with an αMHC promoter-driven GFP gene; assay: Chemical screening: GFP fluorometry for cardiac differentiation of monkey ES cells; type: cell-based, cynomolgus monkey; details: 0.03 to 0.3 μM in early phase, alone or in combination with KY02111 (10 μM in late phase); FIG. 1c

SMILES | increase in APD90, cells from suspension culture compared with cells from adhesion culture [1] | cardiomyocyte count on omission of the compound from the six-compound culture (IMR90-1) | expression of the mesoderm-related genes (MSGN1, T, MIXL1 and NODAL) vs DMSO control [2] | GFP fluorescence of colonies [3] | increase of cardiac differentiation [4]
Cc1cccc(CCN2CCC(C(=O)c3ccc(NS(C)(=O)=O)cc3)CC2)n1 [E4031] | not significantly different |  |  |  | 
Cc1c[nH]c(-c2cnc(NCCNc3ccc(C#N)cn3)nc2-c2ccc(Cl)cc2Cl)n1 [CHIR99021] |  | significant reduction | significantly increased |  | 
CCS(=O)(=O)N(C)[C@H]1c2cc(C#N)ccc2OC(C)(C)[C@@H]1O [Chromanol293B] | significantly higher |  |  |  | 
CCCCCCCCCCCCCC(=O)O[C@@H]1[C@@H](C)[C@@]2(O)[C@@H](C=C(CO)C[C@]3(O)C(=O)C(C)=C[C@@H]23)[C@@H]2C(C)(C)[C@]12OC(C)=O [PMA, Phorbol 12-myristate 13-acetate] |  | significant reduction | reduced | mostly GFP-positive | three- to eight-fold
